Test results: patent US12070445B2, “System and assay for monitoring production/release of membrane-lytic toxins in bacteria and compounds for modulating same” (priority 2021, dated 2024)
Entries after “also recorded” stand apart in the source; their conditions may differ.

Test system: WT S. aureus (RN6390b)
Assay: Microtiter plate (96-well) vesicle lysis assay with WT S. aureus
Format: cell-based
Details: 100 nM 1, 10 μM 5, 20 μM 6, 10 μM AIP
Description: Compound handling and preparation. OdDHL and BHL (Hodgkinson et al., 2011), S. aureus AIP and peptide derivatives 1-5 (Tal-Gan et al., 2013, Tal-Gan et al., 2016, Vasquez and Blackwell, 2019), and compounds 7-9 (Welsh and Blackwell, 2016a, Boursier et al., 2018, Manson et al., 2020) were synthesized using previously described methods. PQS and compound 6 were purchased from Millipore Sigma and AK Scientific respectively. Compounds were stored dry at −20° C. until needed and then dissolved in DMSO. DMSO stock solutions were prepared at concentrations that varied with compound potency and apparent solubility. Final in-well compound concentrations for 96-well vesicle lysis assays, unless noted otherwise, were: 10 μM for AIP, OdDHL, and PQS; 1 mM for BHL; 100 nM for 1-4; 10 μM for 5; 20 μM for 6; 100 μM for 7 and 8; and 200 μM for 9.
Production of phospholipid vesicles with encapsulated calcein. Large unilamellar vesicles (LUVs) were produced by adapting a freeze-thaw and vesicle extrusion procedure (Mayer et al., 1986). Briefly, stock solutions of phospholipids (DOPC, DPPC, DPPE, or cholesterol) in chloroform were mixed to the desired lipid compositions (70 mol % DOPC/30 mol % cholesterol for S. aureus vesicles or 68 mol % DPPC, 30 mol % cholesterol, 2 mol % DPPE for P. aeruginosa vesicles), and the chloroform was removed using an N2 stream or rotary evaporation followed by drying for at least one hour under vacuum. Self-quenching solutions of calcein were prepared by combining calcein and PBS or a specially prepared calcein buffer (1 mM EDTA, 10 mM Trisbase, and 100 mM NaCl; pH 8) to a calcein concentration of […]. The resulting solutions were titrated with 10 M aqueous NaOH until all calcein was dissolved and the solution reached pH 7.4 or pH 8 for PBS and the calcein buffer, respectively. The resulting calcein solutions were added to the dried phospholipid films (PBS for S. aureus formulations and the calcein buffer for the P. aeruginosa formulations) for a final lipid concentration of 5 mg/mL. The resulting lipid solutions were vortexed vigorously and briefly sonicated in a bath sonicator to form a turbid vesicle suspension. The vesicle suspensions were then freeze-thawed five times by alternately immersing them into an iPrOH/dry ice bath and a warm water bath (˜60° C.). Vesicles prepared for continuous time-course experiments were passed at least 5 times through a 100 nm polycarbonate filter using a Mini-prep extruder. Vesicles prepared for the high-throughput screen were passed through the filter 3 times. The resulting vesicles were then separated from external, unloaded calcein using a hand-packed Sephadex-G50 size exclusion chromatography column. The concentration of phospholipid in the solution was quantified using ^31P NMR (per the above protocol), and the phospholipid concentration was adjusted to 2 mM for unsaturated lipid solutions and 1 mM for saturated lipid solutions in their respective buffers. The resulting vesicles were characterized by dynamic light scattering and found to have a hydrodynamic diameter of ˜150 nm (FIGS. 3A-3C), which agrees with previous reports describing vesicle production using a similar method (Lapinski et al., 2007).
Microtiter plate vesicle lysis assays. Portions of media (2 or 10 mL) were inoculated with individual bacterial colonies and allowed to shake overnight. From these overnight cultures, subcultures were prepared by diluting the cultures 1:50 (v/v) in fresh BHI for S. aureus or 1:100 (v/v) in fresh LB for P. aeruginosa. An aliquot of each subculture (178 μL) was added to 20 μL of vesicle suspension and 2 μL of compound solution (dissolved in DMSO at 100× working concentration) in a clear-bottomed, black 96-well microtiter plate (Corning 3904). For controls, DMSO (vehicle) or Triton X-100 (1% final concentration) was substituted for compound. […]

Q: How did the “effect on vesicle lysis (calcein fluorescence over 12 hr)” value turn out when `CC(C)c1ccc(S(=O)(=O)c2nnn3c2nc(O)c2ccccc23)cc1` [Compound 6, savirin] was run?
A: wholly abrogated vesicle lysis; also recorded: repress vesicle lysis
